Source: patent US4771044A, “Tetraoxo compounds and pharmaceutical compositions” (Kali-Chemie Pharma GmbH, priority 1985, dated 1988)
Like-named read-outs stand apart in the source and are kept apart here.

Legend:
female Wistar rats [1] = assay: Behavioral changes of rats in punishment conflict situation (Skinner box), anxiolytic properties; format: in vivo, rat; conditions: po, 1 h
Procedure: 4. Evaluation of anxiolytic properties.
For evaluating the anxiolytic properties of the compounds a modified method according to Davidson et al (see The Benzodiazepines, Raven Press New York 1973 pp 327-345) is used, whereby the ability of the compounds to change the behavior of rats in a punishment conflict situation is examined.
In order to create the conflict situation the following experimental set up and procedure are used:
The tests are performed in Skinner boxes which are provided with an electrifyable grid-floor, a lever which has to be pressed by the rat, an automatic feeder and 2 different light sources. Female Wistar rats having a body weight of 180-300 g are used. Prior to testing the animals are trained to obtain food by pressing the lever, whereby 2 phases of different conditions alternate. The two phases are distinguished by different lightening. During one phase a food reward is given at a fixed ratio after each 10th lever press (=FR 10), yet simultaneous by with the food pellet an electric food shock punishment is delivered. During the other phase food reward is obtained without any electric punishment, yet lever pressing is rewarded with a food pellet far less frequently and at varying time intervals only (average interval 30 sec=VI30). During each […]. trial session […] alternate with 6 FP10 phases (120 sec. each).
For testing the compounds each animal is subjected to the 47 min. test procedure once a day on 4 consecutive days always at the same time. On days 1, 2 and 3 the animals are given per os 10 ml/kg of 2% tylose soluton 60 min. prior to test begin. On day 4 they are given a dose of the test compound in the tylose solution. For each animal the number of lever press responses in the punished FR10 phases and in the unpunished VI30 phases are recorded seperately for each day. For each animal the mean values from the results of the first three days are taken as control values. The results from the 4th day are compared with these control values. The lowest doses which produce significant changes in the number of lever presses are determined for the unpunished phase and for the punished phase as the minimum effective doses (=MEDup and MEpp). Increased activity during the punished phase is due to anxiolytic effects of the test compound. Reduced activity during the unpunished phase is an indication of sedative effects of the compound.

female Wistar rats [2] = assay: CAR-test (conditioned avoidance response) in rats, antipsychotic properties; format: in vivo; conditions: po, 1 h, rat, per os, one hour prior to testing
Procedure: 2. Evaluation of antipsychotic properties in the CAR-test procedure in rats.
The CAR test is performed in a modification of the experimental set up described by Capaldi et al (see R. D. Myers (ed): Methods in Psychobiology, Academic Press, New York, pp. 71-74). Fully automated one-way shuttle boxes are used, which are divided into 2 compartments by a wall with a hole. The floor of the box is a grid of stainless steel through which electric stimuli can be delivered. The ceiling of the box is provided with a lamp and a loudspeaker giving a buzzertone. In order to avoid the electric stimulus in the first starting compartment the animals can cross over into the safe second compartment.
During the test procedure the animals are placed into the starting compartment and at the same time the light and the loudspeaker are switched on as a warning signal (=conditioned stimulus). If at this warning signal already the animals cross over into the safe compartment, this is considered a CAR and is automatically recorded. If the animals don't cross over into the safe compartment within 5 sec. an electric shock is delivered additionally through the floor grid (=unconditioned stimulus) for a period of up to 15 sec. If at the presentation of the electric shock the animals cross over into the safe compartment, this is considered an unconditioned escape response (=UER). As soon as the animals have crossed over into the safe compartment the stimuli are switched off automatically.
For the test female Wistar rats having a body weight of 140-210 g are used. They are trained in a 20 trial session on the day before and only such animals which show CAR exclusively are used for the drug experiments.
Groups of 4 animals are used for each dose of the test compounds, the animals are placed into the test situation 15 times each, and the average value of the last 10 trials is taken into account.
The test compounds are administered per os in a volume of 10 ml/kg of 2% tylose solution one hour prior to testing. To a control group tylose solution only is administered. The dose which reduces CAR by 50% and thus leads to a 50% avoidance block is determined (=ED50 AB). Furthermore the dosis which reduces UER by 50% and thus leads to a 50% escape block is determined (=ED50 EB).

male mice = conditions: mouse, in vivo, 1440 min
Procedure: 1. Determination of Minimum Toxic Dose
Male mice weighing 20 to 25 g are administered per os and i.p. maximum doses of 300 mg/kg of the test substances. The animals are carefully observed for three hours for toxic symptoms. During a period of 24 hours following the administration all symptoms and deaths are recorded. Side reactions are likewise observed and recorded. When death or strong toxic symptoms are observed, further mice are administered increasingly smaller doses. The lowest dose which produces death or strong toxic symptoms is given as the minimum toxic dose.

male NMRI-mice = assay: Inducement of head-shaking syndrome in mice by interaction with subthreshold dose of 5-HTP, antidepressive properties; format: in vivo; conditions: mouse, p.o.; pargyline 25 mg/kg i.p. pretreatment, 50 mg/kg 5-HTP i.p.; 60 min
Procedure: 3. Evaluation of antidepressive properties.
This effect is typical of antidepressives. For this a modified method according to Corne et al (see Br.J.Pharmacol. 20, pp 106-120) is used to determine the ability of the compounds to induce a head-shaking syndrome in mice in interaction with a subthreshold dose of 5-HTP.
Male NMRI-mice having a body weight of 20-30 g are used. 60 min. prior to administration of the test compounds the animals are given an i.p. injection of 25 mg/kg of the MAO-inhibitor pargyline dissolved in a volume of 10 ml/kg of 2% tylose solution. Groups of 20 animals are used for each dose of the test compounds. The test compounds are administered per os in a volume of 10 ml/kg of 2% tylose solution. After 30 min. 50 mg/kg 5-HTP in a volume of 10 ml/kg of 2% tylose solution are injected i.p. and each animal is placed in a case individually. A group of control animals receives only the pargyline injection, the 5-HTP injection and 2% tylose solution p.o.
60 min. after administration of the test compounds (=30 min. after 5-HTP injection) the animals are observed for 120 sec. in order to check, whether or not the head-shaking-syndrome occurs.
The ED50 is defined as the dose at which the number of animals showing a head-shake-syndrome is increased by 50% as compared with the control group.

[3] = rat, p.o., punished FR10 phase, 60 min. prior to test, read-out: MEDPP (minimum effective dose, punished phase)
[4] = rat, p.o., unpunished VI30 phase, 60 min. prior to test, read-out: MEDUP (minimum effective dose, unpunished phase)
[5] = read-out: ED50 AB (dose leading to 50% avoidance block)
[6] = read-out: ED50 EB (dose leading to 50% escape block)

## CCCCN1C(=O)C2C(=O)N(CCCCN3CCN(c4ccccc4OC)CC3)C(=O)C(C1=O)C2(C)C [Compound 3107]
Female Wistar rats [1]; [3]
  minimal effective dose: 14.7 µmol/kg
Female Wistar rats [1]; [4]
  minimal effective dose: 147 µmol/kg
Female Wistar rats [2]; [5]
  ED50: 27 µmol/kg
Female Wistar rats [2]; [6]
  ED50: 70 µmol/kg
Male mice; ip
  Minimum Toxic Dose: 200 mg/kg
Male mice; po
  Minimum Toxic Dose: > 300 mg/kg

## CCCCN1C(=O)C2C(=O)N(CCCCN3CCN(c4ccccc4OCC)CC3)C(=O)C(C1=O)C2(C)C [Compound 3110]
Female Wistar rats [1]; [3]
  minimal effective dose: 6.8 µmol/kg
Female Wistar rats [1]; [4]
  minimal effective dose: > 215 µmol/kg
Female Wistar rats [2]; [5]
  ED50: 50 µmol/kg
Female Wistar rats [2]; [6]
  ED50: 200 µmol/kg
Male mice; ip
  Minimum Toxic Dose: > 300 mg/kg
Male mice; po
  Minimum Toxic Dose: > 300 mg/kg

## CCCCN1C(=O)C2C(=O)N(CCCCN3CCN(c4ccc(F)cc4)CC3)C(=O)C(C1=O)C2(C)C [Compound 3135]
Male NMRI-mice
  ED50, inducement of head-shaking-syndrome by interaction with 5-HTP: 72 µmol/kg
Male mice; ip
  Minimum Toxic Dose: > 300 mg/kg
Male mice; po
  Minimum Toxic Dose: > 300 mg/kg

## CCCCCCN1C(=O)C2C(=O)N(CCCCCN3CCN(c4ccccc4OC)CC3)C(=O)C(C1=O)C2(C)C [Compound 3142]
Male NMRI-mice
  ED50, inducement of head-shaking-syndrome by interaction with 5-HTP: 74 µmol/kg

## CCCCCCN1C(=O)C2C(=O)N(CCCCCN3CCN(c4cccc(C)c4)CC3)C(=O)C(C1=O)C2(C)C [Compound 3143]
Male NMRI-mice
  ED50, inducement of head-shaking-syndrome by interaction with 5-HTP: 130 µmol/kg
Male mice; ip
  Minimum Toxic Dose: > 300 mg/kg
Male mice; po
  Minimum Toxic Dose: > 300 mg/kg

## CCCCN1C(=O)C2C(=O)N(CCCCN3CCN(c4ncccn4)CC3)C(=O)C(C1=O)C2(C)C [Compound 3304]
Female Wistar rats [1]; [3]
  minimal effective dose: 21.5 µmol/kg
Female Wistar rats [1]; [4]
  minimal effective dose: > 215 µmol/kg

## CN1C(=O)CN=C(c2ccccc2)c2cc(Cl)ccc21 [Diazepam, reference compound]
Female Wistar rats [1]; Rattus norvegicus, read-out: MEDPP (minimum effective dose, punished phase)
  minimal effective dose: 31.6 µmol/kg
Female Wistar rats [1]; Rattus norvegicus, read-out: MEDUP (minimum effective dose, unpunished phase)
  minimal effective dose: 46.4 µmol/kg
